Results published in ChEMBL document CHEMBL3430912, “GSK Tres Cantos Anti-Kinetoplastid Screening (TCAKS) Data”.
pIC50: −log10 of the molar value.

Experiments:
[1] = test system: Trypanosoma cruzi; experiment: GSK_TCAKS: pIC50 Trypanosoma cruzi viability assay using beta-GAL activity. This assay was run at single shot at 5uM compound concentration per well. The biological reagents consisted of NIH-3T3 host cells and trypomastigotes parasitic cells; both cell types were set to a 3.3 * 10^5 cells/mL dilution in assay DMEM by means of a CASY cell counter device using a 60um capillary. 6 uL of the mixture were dispensed per well (about 1 * 10^3 host-cells and 1 * 10^3 parasites) with a Multidrop Combi dispenser. […] In all wells, the percentage of DMSO never exceeded 0.5%. Plates incubated for four days at 37C, 5% CO2. The substrate used for the assay fluorescence intensity (FLINT) readout was resorufin-beta-D-galactopiranoside (Sigma-Aldrich) at 5uM per well. It was diluted in PBS supplemented with the soft detergent Igepal (Fluka).; format: functional, organism-based, Mus musculus; conditions: Tulahuen, NIH3T3
[2] = test system: Trypanosoma cruzi; experiment: (§1) GSK_TCAKS: pIC50 Trypanosoma cruzi Imaging: Infected Cells. […] Cells were then washed once with PBS before infection. T. cruzi trypomastigotes, collected at days 5 to 8 after infection from LLC-MK2 parasite infected cultures, were allowed to swim out for 4h at 37C from a centrifuged pellet (2,500 rpm/10 min/room temperature). Trypomastigotes were then collected and counted in a CASY Cell Counter. Trypomastigotes, in supplemented DMEM, were added to H9c2 cultures in a multiplicity of infection of 1 and incubated for 18 h. Cells were washed once with PBS before incubation of the infected H9c2 monolayer with trypsin (Life-Technologies) to detach cells from the flask. Cells were counted in a CASY Cell Counter using a 150 um capillary and their density set at 5 * 10^4 cells per mL in supplemented assay DMEM. Infected H9c2 were dispensed into 384-well poly-lysine coated assay plates at 50uL per well using a Multidrop Combi dispenser. After seeding them, the plates were incubated at 37C, 5% CO2 for 72h. Cultures were then fixed and stained by addition of 50 uL of a solution containing 8% formaldehyde and 4 uM DRAQ5 DNA dye (BioStatus, UK) per well. […] Five images were collected per well for reliable statistical analysis. Automated image analysis was performed with a script developed on Acapella High Content Imaging and Analysis Software (PerkinElmer). Output: percentage of infected cells per well as a second infection marker.; format: functional, organism-based, Rattus norvegicus; conditions: H9c2, 4 h
[3] = test system: Trypanosoma cruzi; experiment: GSK_TCAKS: pIC50 Trypanosoma cruzi Imaging: Amastigotes/Cell. […] Cells were then washed once with PBS before infection. T. cruzi trypomastigotes, collected at days 5 to 8 after infection from LLC-MK2 parasite infected cultures, were allowed to swim out for 4h at 37C from a centrifuged pellet (2,500 rpm/10 min/room temperature). Trypomastigotes were then collected and counted in a CASY Cell Counter. Trypomastigotes, in supplemented DMEM, were added to H9c2 cultures in a multiplicity of infection of 1 and incubated for 18 h. Cells were washed once with PBS before incubation of the infected H9c2 monolayer with trypsin (Life-Technologies) to detach cells from the flask. Cells were counted in a CASY Cell Counter using a 150 um capillary and their density set at 5 * 10^4 cells per mL in supplemented assay DMEM. Infected H9c2 were dispensed into 384-well poly-lysine coated assay plates at 50uL per well using a Multidrop Combi dispenser. After seeding them, the plates were incubated at 37C, 5% CO2 for 72h. Cultures were then fixed and stained by addition of 50 uL of a solution containing 8% formaldehyde and 4 uM DRAQ5 DNA dye (BioStatus, UK) per well. […] Five images were collected per well for reliable statistical analysis. Automated image analysis was performed with a script developed on Acapella High Content Imaging and Analysis Software (PerkinElmer). Output: number of amastigotes per cell as infection level measurement.; format: functional, organism-based, Rattus norvegicus; conditions: H9c2, 4 h
[4] = test system: Trypanosoma cruzi; experiment: as §1, with “H2C9” for “Trypanosoma cruzi”, “H9c2 Host Cardiomyocytes.” for “Infected Cells.”, “Number” for “percentage”, “H9c2 Host Cardiomyocytes nuclei to determine drug-related cytotoxicity.” for “infected cells per well as a second infection marker.”; format: functional, organism-based, Rattus norvegicus; conditions: H9c2, 4 h
[5] = test system: Leishmania donovani; experiment: GSK_TCAKS: pIC50 Leishmania donovani viability assay using fluorescence intensity. Assay plates (1536-well) were prepared by adding 30nL per well of compound. For single shot assay, the final compound concentration was 5uM. […] Briefly, eGFP LdBOB axenic amastigotes were harvested, fixed and counted in a CASY cell counter (Roche-Applied Science). A final concentration of 1.5 * 10^5 cells per well were prepared in amastigote media containing 500 U/mL penicillin/streptomycin (Invitrogen) and 6uL was dispensed to each experimental well using a Multidrop Combi dispenser (Thermo Scientific). 6uL of assay media was dispensed to control columns used as reference for 100% compound response. Following incubation for 72 h at 37C, 5% CO2, 2 uL of resazurin was added to each well at a final concentration of 0.5 mM in phosphate buffered saline (PBS) with IGEPAL (Sigma-Aldrich), 0.05% (v/v).; format: functional, organism-based
[6] = test system: Leishmania donovani; experiment: (§2) GSK_TCAKS: pIC50 Leishmania donovani Imaging: Infected Macrophages. Assay plates (384-well) were prepared by adding 250nL of compound to each well. For single shot assay, the final compound concentration was 5 uM. […] Automated image analysis was performed with a script developed on Acapella High Content Imaging and Analysis Software (PerkinElmer). Output: Percent of infected macrophage cells were reported for each well.; format: functional, organism-based, Homo sapiens; conditions: THP-1
[7] = test system: Leishmania donovani; experiment: as §2, with “Amastigotes/Macrophages.” for “Infected Macrophages.”, “Average number” for “Percent”, “amastigotes per” for “infected”, “cell” for “cells”; format: functional, organism-based, Homo sapiens; conditions: THP-1
[8] = test system: Leishmania donovani; experiment: as §2, with “THP-1 Host” for “Infected”, “THP-1 cell count” for “Percent of infected macrophage cells”; format: functional, organism-based, Homo sapiens
[9] = test system: Trypanosoma brucei brucei; experiment: GSK_TCAKS: pIC50 Trypanosoma brucei viability assay using fluorescence intensity. Assay plates (1536-well) were prepared by dispensing 25nL of compound solution per well using an Echo acoustic dispenser (Labcyte).; format: functional, organism-based; conditions: Lister 427, 2 h
[10] = test system: Trypanosoma brucei brucei; experiment: GSK_TCAKS: pIC50 Trypanosoma brucei viability assay using luminiscence. Assay plates (1536-well) were prepared. T. brucei cultures were harvested and counted in a CASY cell counter. A parasite suspension was prepared at a final concentration of 5 * 10^4 cells/mL in complete HMI9 medium and 6uL was dispensed to all wells containing compounds using a Multidrop Combi dispenser. 6uL of HMI9 media with 0.4% DMSO were dispensed to control columns. Plates were incubated for 24 h at 37C, 5% CO2 then tempered for 10 min at room temperature. ATP content was quantified by adding 4 uL of CellTiter-Glo Reagent (Promega) according to the manufacturer's instructions. Luminescence was measured using a ViewLux.; format: functional, organism-based; conditions: Lister 427, CASY
[11] = GSK_TCAKS: pIC50 HepG2 human cell line viability assay using luminiscence. […] Seeding density was checked to ensure that new mono-layers were not more than 50% confluent at the time of harvesting. Cell suspension was added to 500 mL of the same medium at a final density of 1.2 * 10^5 cells/mL. This cell suspension was dispensed (25 uL, 3000 cells per well) into 384-well clear-bottom plates using a Multidrop Combi dispenser. Prior to addition of the cell suspension, the screening compounds (250 nL) were pre-dispensed into the plates with an Echo liquid handler. Plates were incubated for 48 h at 37C, 5% CO2. After incubation, plates equilibrated at room temperature for 30 min before proceeding to develop the luminescent signal. The signal developer, CellTiter-Glo Reagent, was allowed to equilibrate at room temperature for 30 min and added to the plates (25uL per well) using a Multidrop Combi dispenser. Plates were left for 10 min at room temperature for stabilization and then read using a ViewLux.; format: toxicity, cell-based
[12] = test system: NIH3T3; experiment: GSK_TCAKS: pIC50 NIH 3T3 cell line viability assay using luminiscence. Tissue culture surface treated assay plates (1536-well) were used. […] The 100% cells survival control was determined exposing the host-cells to a 0.5% DMSO concentration, whereas the 100% toxicity control was achieved by seeding the cells in presence of Amphotericin B at 50uM. Plates were incubated for four days at 37C, 5% CO2. The assay readout was developed by addition of 5uL of CellTiter-Glo Reagent following the manufacturer's instructions. Luminiscence was measured using a ViewLux.; format: functional, cell-based; conditions: Mus musculus, NIH3T3, 96 h
[13] = molecular target: Sterol 14-alpha demethylase (Trypanosoma cruzi (strain CL Brener), UniProt Q7Z1V1); experiment: GSK_TCAKS: pIC50 CYP51 from Trypanosoma cruzi.; format: functional
Sterol 14-alpha demethylase, sequence (Q7Z1V1 whole entry): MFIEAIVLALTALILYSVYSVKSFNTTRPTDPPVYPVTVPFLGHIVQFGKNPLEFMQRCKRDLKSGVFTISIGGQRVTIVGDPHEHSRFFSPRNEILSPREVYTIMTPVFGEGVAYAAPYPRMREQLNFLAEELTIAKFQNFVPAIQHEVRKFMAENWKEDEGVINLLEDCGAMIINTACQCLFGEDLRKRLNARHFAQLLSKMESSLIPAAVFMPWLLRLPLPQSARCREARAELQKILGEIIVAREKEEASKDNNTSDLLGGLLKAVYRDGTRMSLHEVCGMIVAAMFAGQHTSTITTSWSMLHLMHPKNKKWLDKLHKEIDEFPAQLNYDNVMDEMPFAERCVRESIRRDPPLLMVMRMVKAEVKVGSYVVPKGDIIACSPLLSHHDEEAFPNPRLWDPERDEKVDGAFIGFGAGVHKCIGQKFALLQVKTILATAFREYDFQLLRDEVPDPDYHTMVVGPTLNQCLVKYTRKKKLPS

Row | Compound | pIC50 [1] | pIC50 [2] | pIC50 [3] | pIC50 [4] | pIC50 [5] | pIC50 [6] | pIC50 [7] | pIC50 [8] | pIC50 [9] | pIC50 [10] | IC50 at 48 h [11] [µM] | pIC50 [12] | pIC50 [13]
1 | COc1cccc(-c2cc(C(F)(F)F)nc(-n3ccc([N+](=O)[O-])n3)n2)c1 | 6.40 | 6.40 | 6.70 | < 4.30 | < 4.30 | < 4.30 | < 4.30 | < 4.30 | 4.50 | < 4.40 | > 100 | < 4.30 | < 4.00
2 | CN(C)Cc1ccc(-c2ccc(S(=O)(=O)NCC3CCCO3)c(F)c2)cc1 (configuration not stated) | 5.90 | 5.30 | 5.70 | < 4.20 | < 4.20 | < 4.20 | < 4.20 | < 4.20 | 4.60 | 4.40 | > 126 | 4.80 | 4.40
3 | O=c1cc(NCCCNC2CCOc3c(I)cc(Cl)cc32)[nH]c2ccccc12 (configuration not stated) | 6.10 | 6.50 | 6.80 | 4.60 | 4.50 | 4.70 | 4.90 | 4.70 | 8.00 | 7.70 | 63.1 | 4.60 | 4.80
4 | Cc1sc(C)c(C(F)(F)F)c1CNCCCNc1cc(=O)c2ccccc2[nH]1 | 6.10 | 6.00 | 6.30 | < 4.30 | < 4.30 | 4.30 | 4.60 | 4.50 | 8.00 | 7.90 | 50.1 | 5.00 | 4.70
5 | CC(C)N(C(=O)CN1C(=O)C(N)C(=O)N(c2ccccc2)c2ccccc21)c1ccccc1 (configuration not stated) | 6.50 | 6.50 | 6.40 | < 4.30 | < 4.30 | < 4.30 | < 4.30 | < 4.30 | < 4.40 | < 4.40 | > 100 | 4.70 | 6.50
6 | O=C1CCCCCC1(Cc1cnc[nH]1)c1ccc(Cl)cc1Cl (configuration not stated) | 6.60 | 6.60 | 6.50 | < 4.30 | < 4.30 | < 4.30 | 5.20 | < 4.30 | < 4.40 | < 4.40 | 79.4 | 4.70 | 7.00
7 | Clc1ccc(C(CC2CCCCO2)Cn2cncn2)c(Cl)c1 (configuration not stated) | 6.40 | 5.90 | 6.00 | < 4.30 | 4.60 | < 4.30 | < 4.30 | < 4.30 | < 4.40 | < 4.40 | > 100 | 4.40 | 6.60
8 | COc1ccc(CN(C)Cc2ccncc2)cc1-c1ccc(S(=O)(=O)NC2CCC2)s1 | 6.30 | 6.20 | 6.30 | 5.00 | 4.40 | < 4.30 | 4.80 | 4.70 | < 4.40 | 4.70 | > 100 | 4.60 | 7.10
9 | Cc1nc2[nH]c(C)c(Cc3ccc(C(C)C)cc3)c(=O)n2n1 | 6.30 | 6.10 | 6.60 | < 4.30 | 5.90 | 4.50 | 4.80 | < 4.30 | < 4.40 | < 4.40 | > 100 | < 4.30 | < 4.00
10 | Cn1nc([N+](=O)[O-])nc1N1CCCCC1 | 5.90 | 4.90 | 6.00 | < 4.30 | < 4.30 | < 4.30 | < 4.30 | < 4.30 | < 4.40 | < 4.40 | > 100 | < 4.30 | < 4.00
11 | COc1cc(C(C)C)c(S(C)(=O)=O)cc1C(=O)N1CCN(c2ccccc2Cl)CC1 | 5.80 | 5.60 | 5.70 | 4.70 | 5.30 | 4.80 | 4.90 | 4.80 | 4.60 | 4.50 | > 100 | < 4.30 | < 4.00
12 | O=C(NCc1ccc(-n2cccc2)cc1)c1nc(Cn2ccc([N+](=O)[O-])n2)no1 | 5.60 | 5.60 | 5.90 | < 4.30 | < 4.30 | < 4.30 | < 4.30 | < 4.30 | < 4.40 | < 4.40 | > 100 | 4.30 | < 4.00
13 | COc1ccc(NS(=O)(=O)c2cccc(NC(=O)c3cc(F)cc(F)c3)c2)cc1 | 6.10 | 6.30 | 6.30 | < 4.30 | 5.50 | < 4.30 | 4.70 | < 4.30 | 6.20 | 6.00 | 31.6 | 4.60 | < 4.00
14 | Cn1cncc1CN1CCC2(CC1)COC(Cc1ccccc1)C2 (configuration not stated) | 6.50 | 6.30 | 6.50 | < 4.30 | 4.90 | < 4.30 |  | < 4.30 | < 4.40 | < 4.40 | > 100 | 4.60 | 6.00
15 | CC1(C)CCC(=Cc2ccc(Cl)cc2)CC1(O)Cn1ccnc1 (configuration not stated) | 8.20 | 8.10 | 8.30 | 4.50 | 5.60 | 5.10 | 5.70 | 4.90 | 5.00 | 4.60 | 50.1 | 4.80 | 7.30
16 | O=C(NCC1CCCCC1)c1cc(=O)c2ccccc2o1 | 6.35 | 6.20 | 6.30 | 4.50 | 5.30 | 4.80 | 5.20 | < 4.30 | 6.00 | 5.90 | 25.1 | 4.50 | < 4.00
